Laboratory results reported in US20240325341A1, “ANTI-BACTERIAL EFFECT OF HALOGENATED FLUORESCEINS AGAINST COLISTIN-RESISTANT GRAM-NEGATIVE BACTERIA” (priority 2023, published 2024).
Converted amounts (≈) assume the structure as drawn. Where two headings read alike, the source gives them in different places.

Assays:
Type in all cases: cell-based
[1] = test system: colistin-resistant Gram-negative bacteria; details: under a fluorescent light
[2] = test system: Proteus mirabilis urine strain WGLW4 colistin-resistant strain; experiment: microbe, parasite or virus in culture; details: 24 h
[3] = test system: Pseudomonas aeruginosa (ATCC 27853) - high colistin-resistant strain; experiment: microbe, parasite or virus in culture
[4] = test system: Escherichia coli serotype O157 (TW07793) colistin-resistant strain; experiment: microbe, parasite or virus in culture; details: 24 h
[5] = test system: Pseudomonas aeruginosa (ATCC 27853) - intermediate colistin-resistant strain; experiment: microbe, parasite or virus in culture
[6] = test system: Burkholderia thailandensis E264 (Wild type); experiment: microbe, parasite or virus in culture; details: 24 h
[7] = test system: Acinetobacter baumannii (ATCC19606); experiment: MIC by broth dilution
[8] = test system: Pseudomonas aeruginosa MRSN 1356 (NR51521); experiment: MIC by broth dilution; details: 24 h
[9] = test system: Salmonella enterica Pennsylvania, Serovar Typhimurium, Isolate 1 (NR4333) colistin-resistant strain; experiment: microbe, parasite or virus in culture; details: 24 h
[10] = test system: Burkholderia multivorans CGD1 colistin-resistant strain; experiment: microbe, parasite or virus in culture; details: broth dilution, 24 h, entry 21
[11] = test system: Klebsiella pneumoniae (CRE) CHS 67 (NR48569); experiment: MIC by broth dilution; details: 24 h
[12] = test system: Burkholderia thailandensis E264 colistin-resistant strain; experiment: microbe, parasite or virus in culture
[13] = test system: Pseudomonas aeruginosa (ATCC 27853); experiment: MIC by broth dilution
[14] = test system: Serratia sp. strain Ag2 colistin-resistant strain; experiment: microbe, parasite or virus in culture; details: 24 h
[15] = test system: Salmonella enterica subsp. enterica Typhimurium (BAA 2721) (Wild type); experiment: MIC by broth dilution; details: 24 h
[16] = test system: Acinetobacter baumannii (ATCC19606) colistin-resistant strain; experiment: microbe, parasite or virus in culture
[17] = test system: Pseudomonas aeruginosa MRSN 1380 (NR51522) colistin-resistant strain; experiment: microbe, parasite or virus in culture; details: 24 h
[18] = test system: Escherichia coli serotype O157 (TW07793); experiment: microbe, parasite or virus in culture; details: broth dilution, 24 h, entry 3
[19] = test system: Proteus mirabilis urine strain WGLW4 (Wild type); experiment: MIC by broth dilution; details: 24 h
[20] = test system: Burkholderia cepacia genomovar III, LMG16656 (wild type); experiment: microbe, parasite or virus in culture
[21] = test system: Acinetobacter baumannii (ATCC BAA1800) colistin-resistant strain; experiment: microbe, parasite or virus in culture
[22] = test system: Escherichia coli (ATCC 35218) colistin-resistant strain; experiment: microbe, parasite or virus in culture
[23] = test system: Salmonella enterica subsp. enterica Typhimurium (BAA 2721) intermediate colistin-resistant strain; experiment: microbe, parasite or virus in culture; details: 24 h
[24] = test system: Acinetobacter baumannii (ATCC BAA1800); experiment: MIC by broth dilution
[25] = test system: Burkholderia cepacia genomovar III, LMG16656 colistin-resistant strain; experiment: microbe, parasite or virus in culture; details: broth dilution, 24 h, entry 25
[26] = test system: Burkholderia multivorans CGD1 (wild type); experiment: MIC by broth dilution; details: 24 h
[27] = test system: Salmonella enterica Pennsylvania, Serovar Typhimurium, Isolate 1 (NR4333); experiment: MIC by broth dilution; details: 24 h
[28] = test system: Klebsiella pneumoniae colistin-resistant strain; experiment: microbe, parasite or virus in culture; details: Klebsiella pneumoniae, ATCC19606, 24 h
[29] = test system: Pseudomonas aeruginosa MRSN 1356 (NR51521) colistin-resistant strain; experiment: microbe, parasite or virus in culture; details: 24 h
[30] = test system: E. coli ATCC35218 colistin^R; details: 30 min; reference molecule at 10 mg/mL
[31] = test system: Serratia sp. strain Ag2 (Wild-type); experiment: MIC by broth dilution
[32] = test system: Klebsiella pneumoniae (ATCC 19606); experiment: MIC by broth dilution; details: Klebsiella pneumoniae, ATCC19606, 24 h, entry 9
[33] = test system: Pseudomonas aeruginosa MRSN 1380 (NR51522); experiment: MIC by broth dilution; details: 24 h
[34] = test system: Escherichia coli (ATCC 35218); experiment: MIC by broth dilution
[35] = test system: Klebsiella pneumoniae (CRE) CHS 67 (NR48569) colistin-resistant strain; experiment: microbe, parasite or virus in culture; details: 24 h
[36] = test system: Klebsiella pneumoniae (ATCC 19606) colistin-resistant strain; experiment: microbe, parasite or virus in culture; details: broth dilution, 24 h; entry 10
Klebsiella pneumoniae = experiment: MIC by broth dilution; details: 24 h, entry 9
[37] = Pseudomonas aeruginosa, ATCC27853, 24 h

Q: `O=C1OC2(c3cc(I)c(O)c(I)c3Oc3c2cc(I)c(O)c3I)c2c(Cl)c(Cl)c(Cl)c(Cl)c21` [RB, 4,5,6,7-tetrachloro-2′,4′,5′,7′-tetraiodo-fluorescein] was tested. Which bactericidal activity [1] did it give?
A: Its bactericidal activity is 0.05 to 6.25 µg/mL.

Q: Which MIC ([2]; Proteus mirabilis) does the source give for `C[C@@H](O)[C@H]1C(=O)N2C(C(=O)O)=C(S[C@@H]3CN[C@H](C(=O)N(C)C)C3)[C@H](C)[C@H]12` [Meropenem] here?
A: Its MIC is greater than 200 µg/mL.

Q: What about the MIC [3, 37] of the same molecule?
A: Its MIC is greater than 100 µg/mL.

Q: And the MIC ([4]; Escherichia coli)?
A: The MIC was 12.5 µg/mL (≈ 32.6 µM).

Q: What about the MIC [5, 37] of the same molecule?
A: The MIC was greater than 100 µg/mL.

Q: And the MIC ([6]; Burkholderia thailandensis)?
A: The MIC was 12.5 µg/mL (≈ 32.6 µM).

Q: And the MIC ([7]; Acinetobacter baumannii, ATCC19606, 24 h, entry 5, read-out: MIC)?
A: The MIC was 100 µg/mL (≈ 261 µM).

Q: And the MIC ([8]; Pseudomonas aeruginosa, entry 16, read-out: MIC)?
A: Its MIC is greater than 100 µg/mL.

Q: And the MIC ([9]; Salmonella enterica)?
A: Its MIC is greater than 100 µg/mL.

Q: And the MIC ([10]; Burkholderia multivorans, read-out: MIC)?
A: Its MIC is greater than 100 µg/mL.

Q: What about the MIC ([11]; Klebsiella pneumoniae, entry 11, read-out: MIC) of the same molecule?
A: Its MIC is greater than 100 µg/mL.

Q: And the MIC ([12]; Burkholderia thailandensis, 24 h)?
A: Its MIC is greater than 100 µg/mL.

Q: What about the MIC ([13]; Pseudomonas aeruginosa, ATCC27853, 24 h, entry 13, read-out: MIC) of the same molecule?
A: Its MIC is greater than 100 µg/mL.

Q: And the MIC ([14]; Serratia)?
A: The MIC was 12.5 µg/mL (≈ 32.6 µM).

Q: What about the MIC ([15]; Salmonella enterica, entry 26, read-out: MIC) of the same molecule?
A: The MIC was 3.1 µg/mL (≈ 8.08 µM).

Q: What about the MIC ([16]; Acinetobacter baumannii, ATCC19606, 24 h) of the same molecule?
A: The MIC was greater than 100 µg/mL.

Q: And the MIC ([17]; Pseudomonas aeruginosa)?
A: The MIC was 100 µg/mL (≈ 261 µM).

Q: What about the MIC ([18]; Escherichia coli, read-out: MIC) of the same molecule?
A: Its MIC is 1.6 µg/mL (≈ 4.17 µM).

Q: What about the MIC ([19]; Proteus mirabilis, entry 30, read-out: MIC) of the same molecule?
A: The MIC was greater than 200 µg/mL.

Q: And the MIC ([20]; Burkholderia cepacia, LMG16656, 24 h)?
A: Its MIC is 25 µg/mL (≈ 65.2 µM).

Q: And the MIC ([21]; Acinetobacter baumannii, ATCCBAA1800, 24 h)?
A: The MIC was greater than 100 µg/mL.

Q: What about the MIC ([22]; Escherichia coli, ATCC35218, 24 h) of the same molecule?
A: The MIC was 25 µg/mL (≈ 65.2 µM).

Q: And the MIC ([23]; Salmonella enterica)?
A: Its MIC is 6.25 µg/mL (≈ 16.3 µM).

Q: And the MIC ([24]; Acinetobacter baumannii, ATCCBAA1800, 24 h, entry 7, read-out: MIC)?
A: The MIC was greater than 100 µg/mL.

Q: And the MIC ([25]; Burkholderia cepacia, LMG16656, read-out: MIC)?
A: The MIC was 100 µg/mL (≈ 261 µM).

Q: And the MIC ([26]; Burkholderia multivorans, entry 20, read-out: MIC)?
A: The MIC was 25 µg/mL (≈ 65.2 µM).

Q: And the MIC ([27]; Salmonella enterica, entry 28, read-out: MIC)?
A: The MIC was 1.6 µg/mL (≈ 4.17 µM).

Q: And the MIC [28]?
A: Its MIC is greater than 100 µg/mL.

Q: And the MIC ([29]; Pseudomonas aeruginosa)?
A: Its MIC is greater than 100 µg/mL.

Q: What about the “reduction of strain (CFU)” value [30] of the same molecule?
A: The value was 0%.

Q: What about the MIC ([31]; Serratia, 24 h, entry 32, read-out: MIC) of the same molecule?
A: The MIC was 0.039 µg/mL (≈ 0.102 µM).

Q: And the MIC ([31]; Table 1, 24 h)?
A: Its MIC is 4000 µg/mL (≈ 10400 µM).

Q: What about the MIC [32] of the same molecule?
A: The MIC was greater than 100 µg/mL.

Q: What about the MIC ([33]; Pseudomonas aeruginosa, entry 18, read-out: MIC) of the same molecule?
A: Its MIC is 3.13 µg/mL (≈ 8.16 µM).

Q: And the MIC ([34]; Escherichia coli, ATCC35218, 24 h, entry 1, read-out: MIC)?
A: The MIC was less than 0.8 µg/mL.

Q: What about the MIC ([35]; Klebsiella pneumoniae) of the same molecule?
A: Its MIC is greater than 100 µg/mL.

Q: Which MIC ([2]; broth dilution, entry 31) does the source give for Amikacin here?
A: The MIC was greater than 200 µg/mL.

Q: And the MIC ([3]; broth dilution, 24 h, entry 15)?
A: The MIC was greater than 200 µg/mL.

Q: What about the MIC ([4]; broth dilution, entry 4) of the same molecule?
A: The MIC was 25.0 µg/mL.

Q: And the MIC ([5]; broth dilution, 24 h, entry 14)?
A: The MIC was greater than 100 µg/mL.

Q: And the MIC ([6]; broth dilution, entry 22)?
A: The MIC was 64.0 µg/mL.

Q: What about the MIC ([7]; 24 h, entry 5) of the same molecule?
A: Its MIC is 16.0 µg/mL.

Q: And the MIC ([8]; entry 16)?
A: The MIC was 32.0 µg/mL.

Q: And the MIC ([9]; broth dilution, entry 29)?
A: Its MIC is greater than 100 µg/mL.

Q: And the MIC [10]?
A: The MIC was greater than 200.0 µg/mL.

Q: And the MIC ([11]; entry 11)?
A: The MIC was 16.0 µg/mL.

Q: And the MIC [12]?
A: The MIC was greater than 200 µg/mL.

Q: And the MIC ([13]; 24 h, entry 13)?
A: The MIC was 32.0 µg/mL.

Q: And the MIC ([14]; broth dilution, entry 33)?
A: The MIC was greater than 200 µg/mL.

Q: What about the MIC ([15]; entry 26) of the same molecule?
A: Its MIC is 1.6 µg/mL.

Q: And the MIC ([16]; broth dilution, 24 h, entry 6)?
A: The MIC was greater than 100 µg/mL.

Q: And the MIC ([17]; broth dilution, entry 19)?
A: The MIC was greater than 100 µg/mL.

Q: And the MIC [18]?
A: Its MIC is 1.6 µg/mL.

Q: And the MIC ([19]; entry 30)?
A: Its MIC is greater than 200 µg/mL.

Q: What about the MIC ([20]; broth dilution, 24 h, entry 24) of the same molecule?
A: Its MIC is greater than 100 µg/mL.

Q: What about the MIC ([21]; broth dilution, 24 h, entry 8) of the same molecule?
A: The MIC was greater than 100 µg/mL.

Q: What about the MIC ([22]; broth dilution, 24 h, entry 2) of the same molecule?
A: Its MIC is greater than 100 µg/mL.

Q: And the MIC ([23]; broth dilution, entry 27)?
A: Its MIC is greater than 100 µg/mL.

Q: And the MIC ([24]; 24 h, entry 7)?
A: The MIC was 64.0 µg/mL.

Q: What about the MIC [25] of the same molecule?
A: Its MIC is greater than 200 µg/mL.

Q: And the MIC ([26]; entry 20)?
A: Its MIC is 200.0 µg/mL.

Q: And the MIC ([27]; entry 28)?
A: Its MIC is 1.6 µg/mL.

Q: And the MIC [36]?
A: Its MIC is 64.0 µg/mL.

Q: What about the MIC ([29]; broth dilution, entry 17) of the same molecule?
A: The MIC was greater than 100 µg/mL.

Q: And the “reduction of strain (CFU)” value [30]?
A: The value was “about 3.5%”.

Q: And the MIC ([31]; 24 h, entry 32)?
A: The MIC was greater than 200 µg/mL.

Q: And the MIC (Klebsiella pneumoniae)?
A: The MIC was 4.0 µg/mL.

Q: What about the MIC ([33]; entry 18) of the same molecule?
A: The MIC was 64.0 µg/mL.

Q: What about the MIC ([34]; 24 h, entry 1) of the same molecule?
A: Its MIC is 3.1 µg/mL.

Q: What about the MIC ([35]; broth dilution, entry 12) of the same molecule?
A: Its MIC is greater than 100 µg/mL.
